Consider 4 compounds from patent US20160113921A1, “COMBINATION THERAPY COMPRISING OXAZOLIDINONE-QUINOLONES FOR USE IN TREATING BACTERIAL INFECTIONS” (MORPHOCHEM AKTIENGESELLSCHAFT FÜR KOMBINATORISCHE CHEMIE, priority 2013, published 2016).

Holding throughout (type): cell-based
For experiment [1], the system named is E. coli NRZ-00302 (metallo β-lactamase NDM-1). Kind of experiment: MIC, broth microdilution (CLSI), CAMHB. Conditions: Escherichia coli. The procedure: (§1) MIC-testing was done immediately after preparation of the dilutions. All tests were done in duplicate and repeated once on a separate occasion.
(§2) 1 mL of the bacterial suspension was transferred into a tube containing 10 mL CAMHB and was vortexed thoroughly. (S. pneumoniae 1 mL in 10 mL CAMHB+5% lysed horse blood). Columns 1-15 of the 96-well plate were inoculated with 5 μL of this suspension (1-15=antibacterial solution, 16=sterile medium without test item).
(§3) Turbidity was read visually with a mirror.

The test system of experiment [2] is P. mirabilis NRZ-00185 (AmpC, type CMY-2). Briefly: MIC, broth microdilution (CLSI), CAMHB. To be noted: Proteus mirabilis. As for the experimental part:
as §1, §2, §3
A general note: Broth dilution looks for growth in wells or tubes with falling amounts of substance.

The subject of a further experiment is P. mirabilis ATCC 9240. Briefly: MIC, broth microdilution (CLSI), CAMHB. Conditions: Proteus mirabilis; monosubstance; Pm ATCC9240; read-out: MIC. The procedure:
as §1, §2, §3

Experiment [3] has as its system K. pneumoniae NRZ-00103 (KPC-2). Briefly: MIC, broth microdilution (CLSI), CAMHB. To be noted: Klebsiella pneumoniae. As for the experimental part:
as §1, §2, §3

Another experiment relates to K. pneumoniae ATCC 13883. Kind of experiment: MIC, broth microdilution (CLSI), CAMHB. Conditions: Klebsiella pneumoniae; monosubstance; Kp ATCC13883; read-out: MIC. As for the experimental part:
as §1, §2, §3

The test system of the next experiment is P. aeruginosa ATCC 10145. Briefly: MIC, broth microdilution (CLSI), CAMHB. To be noted: Pseudomonas aeruginosa; monosubstance; Pa ATCC10145; read-out: MIC. The procedure: as §1, §2, §3
The subject of experiment [4] is E. cloacae NRZ-00239 (VIM-1). Kind of experiment: MIC, broth microdilution (CLSI), CAMHB. To be noted: Enterobacter cloacae; monosubstance; Ecl NRZ00239; read-out: MIC. The procedure: as §1, §2, §3
The subject of experiment [5] is P. aeruginosa NRZ-00425 (VIM-1). Kind of experiment: MIC, broth microdilution (CLSI), CAMHB. To be noted: Pseudomonas aeruginosa; monosubstance; Pa NRZ00425; read-out: MIC. The procedure:
as §1, §2, §3

Experiment [6] relates to E. coli GNS-2601 (ESBL CTX-M-15). Briefly: MIC, broth microdilution (CLSI), CAMHB. To be noted: Escherichia coli. The procedure: as §1, §2, §3
Experiment [7] relates to K. pneumoniae NRZ-00002 (OXA-48). Briefly: MIC, broth microdilution (CLSI), CAMHB. To be noted: Klebsiella pneumoniae; monosubstance; Kp NRZ00002; read-out: MIC. As for the experimental part: as §1, §2, §3
The subject of experiment [8] is E. coli NRZ-00401 (metallo β-lactamase VIM-1). Briefly: MIC, broth microdilution (CLSI), CAMHB. To be noted: Escherichia coli; monosubstance; Ec NRZ00401; read-out: MIC. The procedure:
as §1, §2, §3

In a further experiment the test system is E. coli ATCC 25922. Kind of experiment: MIC, broth microdilution (CLSI), CAMHB. To be noted: Escherichia coli; monosubstance; Ec ATCC25922; read-out: MIC. As for the experimental part: as §1, §2, §3
Experiment [9] has as its system K. pneumoniae NRZ-00535 (VIM-1). Kind of experiment: MIC, broth microdilution (CLSI), CAMHB. Conditions: Klebsiella pneumoniae. As for the experimental part:
as §1, §2, §3

In another experiment the test system is E. cloacae ATCC 13047. Kind of experiment: MIC, broth microdilution (CLSI), CAMHB. To be noted: Enterobacter cloacae; monosubstance; Ecl ATCC13047; read-out: MIC. The procedure:
as §1, §2, §3

Experiment [10] deals with Gram-negative test strains (Enterobacteriaceae, non-fermenters). Briefly: MIC testing, statements on the Gram-negative strain panel.
Excerpt: as §1

The next experiment has as its system E. faecalis V583 (VanB). Briefly: MIC, broth microdilution (CLSI), CAMHB. To be noted: Enterococcus faecalis; monosubstance; Ef V583; read-out: MIC. The procedure: as §1, §2, §3
Experiment [11] relates to S. pneumoniae BAY 19397 (penicillin-, macrolide-, quinolone-resistant). Kind of experiment: MIC, broth microdilution (CLSI), CAMHB. To be noted: Streptococcus pneumoniae, monosubstance; Spn 19397; read-out: MIC. As for the experimental part:
as §1, §2, §3

The test system of the next experiment is S. aureus ATCC 29213. Kind of experiment: MIC, broth microdilution (CLSI), CAMHB. Conditions: Staphylococcus aureus; monosubstance; Sa ATCC29213; read-out: MIC. The procedure:
as §1, §2, §3

The subject of experiment [12] is S. aureus ATCC 33593 (MRSA). Kind of experiment: MIC, broth microdilution (CLSI), CAMHB. To be noted: Staphylococcus aureus; monosubstance; Sa ATCC33593; read-out: MIC. The procedure: as §1, §2, §3
Experiment [13] relates to S. aureus Visa Mu 50 (MRSA, vancomycin intermediate susceptible). Kind of experiment: MIC, broth microdilution (CLSI), CAMHB. Conditions: Staphylococcus aureus; monosubstance; Sa VisaMu50; read-out: MIC. As for the experimental part:
as §1, §2, §3

Experiment [14] relates to S. aureus NRS-119 (MRSA, linezolid- and quinolone-resistant). Kind of experiment: MIC, broth microdilution (CLSI), CAMHB. To be noted: Staphylococcus aureus. As for the experimental part: as §1, §2, §3
Another experiment relates to S. pneumoniae ATCC 33400. Kind of experiment: MIC, broth microdilution (CLSI), CAMHB. To be noted: Streptococcus pneumoniae; monosubstance; Spn ATCC33400; read-out: MIC. The procedure:
as §1, §2, §3

For a further experiment, the system named is E. faecalis ATCC 29212. Briefly: MIC, broth microdilution (CLSI), CAMHB. To be noted: Enterococcus faecalis; monosubstance; Ef ATCC29212; read-out: MIC. As for the experimental part:
as §1, §2, §3

For the next experiment, the system named is E. faecium DSMZ 2146. Kind of experiment: MIC, broth microdilution (CLSI), CAMHB. Conditions: Enterococcus faecium. As for the experimental part:
as §1, §2, §3

The subject of experiment [15] is E. faecium UW 3695 (linezolid and quinolone-resistant). Briefly: MIC, broth microdilution (CLSI), CAMHB. Conditions: Enterococcus faecium; monosubstance; Efc UW3695; read-out: MIC. As for the experimental part: as §1, §2, §3
The subject of experiment [16] is S. aureus DSM 11823, clone 16 (MSSA, quinolone-resistant). Kind of experiment: microbe, parasite or virus in culture. To be noted: Staphylococcus aureus. As for the experimental part:
as §1, §2, §3

For experiment [17], the system named is Gram-positive strains tested. Briefly: MIC testing, statements on the Gram-positive strain panel. Conditions: all the test strains except S. aureus NRS-119 and E. faecium UW 3695; read-out: MIC (inhibitory concentration).
Excerpt: as §1

The mark [18] stands for this setting: remainder / remaining / all other test strains, as worded for each agent, read-out: MIC.

Values after ≈ are worked out from the molar mass of the structure shown. Like-named read-outs stand apart in the source and are kept apart here.

Take `NC[C@H]1O[C@H](O[C@H]2[C@H](O)[C@@H](O[C@H]3O[C@H](CO)[C@@H](O)[C@H](N)[C@H]3O)[C@H](N)C[C@@H]2N)[C@H](N)C[C@@H]1O` [tobramycin]: the MIC came to 64 mg/L (≈ 137 µM) in experiment [1] (monosubstance, Ec NRZ00302, read-out: MIC); 0.125 mg/L (≈ 0.267 µM) in [2] (monosubstance, Pm NRZ00185, read-out: MIC); 0.5 mg/L (≈ 1.07 µM) with P. mirabilis ATCC 9240; 16 mg/L (≈ 34.2 µM) in [3] (monosubstance, Kp NRZ00103, read-out: MIC); 0.125 mg/L (≈ 0.267 µM) in the experiment with K. pneumoniae ATCC 13883; 0.5 mg/L (≈ 1.07 µM) in the experiment on P. aeruginosa ATCC 10145. The MIC in experiment [4] was 4 mg/L (≈ 8.56 µM); in [5], above 128 mg/L; in [6] (monosubstance, Ec GNS2601, read-out: MIC) it was 32 mg/L (≈ 68.4 µM); in [7], 16 mg/L (≈ 34.2 µM); in experiment [8] it was 4 mg/L (≈ 8.56 µM); in the experiment with E. coli ATCC 25922, 1 mg/L (≈ 2.14 µM). Also, the MIC is 8 mg/L (≈ 17.1 µM) in experiment [9] (monosubstance, Kp NRZ00535, read-out: MIC); 0.25 mg/L (≈ 0.535 µM) in the experiment on E. cloacae ATCC 13047; above 4 mg/L in [10] (setting [18]).

On to `CC(C)(O/N=C(\C(=O)N[C@@H]1C(=O)N2C(C(=O)[O-])=C(C[n+]3ccccc3)CS[C@H]12)c1csc(N)n1)C(=O)O` [ceftazidime], for which the MIC in experiment [1] was above 256 mg/L; in experiment [2], 128 mg/L (≈ 234 µM); in the experiment with P. mirabilis ATCC 9240, 0.5 mg/L (≈ 0.915 µM); in [3] it was above 256 mg/L; in the experiment with K. pneumoniae ATCC 13883, 0.25 mg/L (≈ 0.457 µM); in the experiment on P. aeruginosa ATCC 10145, 2 mg/L (≈ 3.66 µM). Besides, the MIC in experiment [4] stood at 4 mg/L (≈ 7.32 µM); in experiment [5], 32 mg/L (≈ 58.5 µM); in [6] it was 128 mg/L (≈ 234 µM); in experiment [7], 64 mg/L (≈ 117 µM); in [8], 32 mg/L (≈ 58.5 µM); in the experiment with E. coli ATCC 25922, 0.03 mg/L (≈ 0.0549 µM). The MIC was above 256 mg/L in [9]; 2 mg/L (≈ 3.66 µM) in the experiment on E. cloacae ATCC 13047; below 0.5 mg/L in experiment [10] (E. coli, K. pneumoniae, and P. mirabilis wild type strains, read-out: MIC (inhibitory concentration)); above 2 mg/L in [10] (setting [18]).

Take `CC1(C)S[C@@H]2[C@H](NC(=O)[C@H](N)c3ccccc3)C(=O)N2[C@H]1C(=O)O` [ampicillin]: the MIC in the experiment with E. faecalis V583 (VanB) came to 0.5 mg/L (≈ 1.43 µM); in experiment [11], 1 mg/L (≈ 2.86 µM); in the experiment with S. aureus ATCC 29213, 0.5 mg/L (≈ 1.43 µM); in experiment [12], 64 mg/L (≈ 183 µM); in experiment [13] it was 256 mg/L (≈ 733 µM); in experiment [14], 128 mg/L (≈ 366 µM). Besides, the MIC with S. pneumoniae ATCC 33400 is 0.0075 mg/L (≈ 0.0215 µM); in the experiment on E. faecalis ATCC 29212 it was 1 mg/L (≈ 2.86 µM); in the experiment with E. faecium DSMZ 2146 (DSMZ2146) it was 128 mg/L (≈ 366 µM); in experiment [15], 32 mg/L (≈ 91.6 µM); in experiment [16], 0.007 mg/L (≈ 0.02 µM).

Take `CC(=O)NC[C@H]1CN(c2ccc(N3CCOCC3)c(F)c2)C(=O)O1` [linezolid]: the MIC in the experiment with E. faecalis V583 (VanB) is 2 mg/L (≈ 5.93 µM); in [11], 1 mg/L (≈ 2.96 µM); with S. aureus ATCC 29213 it was 2 mg/L (≈ 5.93 µM); in experiment [12], 2 mg/L (≈ 5.93 µM); in experiment [13], 4 mg/L (≈ 11.9 µM); in [14] (monosubstance, Sa NRS119, read-out: MIC), 64 mg/L (≈ 190 µM). In addition, the MIC in the experiment on S. pneumoniae ATCC 33400 was 2 mg/L (≈ 5.93 µM); in the experiment on E. faecalis ATCC 29212 it was 4 mg/L (≈ 11.9 µM); with E. faecium DSMZ 2146 (monosubstance, Efc DSMZ2146, read-out: MIC), 4 mg/L (≈ 11.9 µM); in [15], 16 mg/L (≈ 47.4 µM); in experiment [17], below 4 mg/L; in experiment [16] it was 2 mg/L (≈ 5.93 µM).
